Measured values: PubChem BioAssay (NCI)
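48-hour exposure; five concentrations; linearly interpolated endpoints. Here, GI50 denotes the concentration required for 50% inhibition of growth. At the TGI there is no net growth.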

What was measured:
Test in all cases: NCI anticancer screen, dose series, 48 h; in the data active = GI50 below about 0.43 µM; inactive = the rest
U251 CNS = system: U251 CNS
ACHN renal = system: ACHN renal
HS 578T breast = system: HS 578T breast
SK-MEL-2 melanoma = system: SK-MEL-2 melanoma
HOP-62 NSCLC = system: HOP-62 NSCLC
RXF 393 renal = system: RXF 393 renal
SF-295 CNS = system: SF-295 CNS
IGROV1 ovarian = system: IGROV1 ovarian
HL-60(TB) leukemia = system: HL-60(TB) leukemia
MDA-MB-231 breast = system: MDA-MB-231 breast
OVCAR-5 ovarian = system: OVCAR-5 ovarian
NCI-H23 lung = system: NCI-H23 lung
CCRF-CEM leukemia = system: CCRF-CEM leukemia
BT-549 breast = system: BT-549 breast
NCI/ADR-RES ovarian = system: NCI/ADR-RES ovarian
MALME-3M melanoma = system: MALME-3M melanoma
M14 melanoma = system: M14 melanoma
COLO 205 colon = system: COLO 205 colon
T-47D breast = system: T-47D breast
HCC-2998 colon = system: HCC-2998 colon
DU-145 prostate = system: DU-145 prostate
MCF7 breast = system: MCF7 breast
HCT-116 colon = system: HCT-116 colon
OVCAR-3 ovarian = system: OVCAR-3 ovarian
SW-620 colon = system: SW-620 colon
786-0 renal = system: 786-0 renal
K-562 leukemia = system: K-562 leukemia
MDA-MB-435 = system: MDA-MB-435
SR leukemia = system: SR leukemia
EKVX NSCLC = system: EKVX NSCLC
SK-MEL-5 melanoma = system: SK-MEL-5 melanoma
TK-10 renal = system: TK-10 renal
SK-OV-3 ovarian = system: SK-OV-3 ovarian
OVCAR-4 ovarian = system: OVCAR-4 ovarian
NCI-H460 lung = system: NCI-H460 lung
UACC-257 melanoma = system: UACC-257 melanoma
A498 renal = system: A498 renal
PC-3 prostate = system: PC-3 prostate
SF-539 CNS = system: SF-539 CNS
SN12C renal = system: SN12C renal
MOLT-4 leukemia = system: MOLT-4 leukemia
HOP-92 NSCLC = system: HOP-92 NSCLC
CAKI-1 renal = system: CAKI-1 renal
NCI-H522 lung = system: NCI-H522 lung
KM12 colon = system: KM12 colon
A549 NSCLC = system: A549 NSCLC
HT29 colon = system: HT29 colon
UACC-62 melanoma = system: UACC-62 melanoma
SK-MEL-28 melanoma = system: SK-MEL-28 melanoma
SNB-75 CNS = system: SNB-75 CNS
RPMI-8226 leukemia = system: RPMI-8226 leukemia
LOX IMVI melanoma = system: LOX IMVI melanoma
HCT-15 colon = system: HCT-15 colon
UO-31 renal = system: UO-31 renal
SNB-19 CNS = system: SNB-19 CNS
SF-268 CNS = system: SF-268 CNS
OVCAR-8 ovarian = system: OVCAR-8 ovarian
NCI-H226 lung = system: NCI-H226 lung

C#CCN(c1ccc(C(=O)N[C@@H](CCC(=O)N[C@H](CCC(=O)O)C(=O)O)C(=O)O)cc1)C1CCc2cc3nc(CO)[nH]c(=O)c3cc21 (stereo not given in full)
> 72.3 µM: TGI (SF-295 CNS)
> 64.1 µM: TGI (UACC-62 melanoma)
> 100 µM: TGI (U251 CNS) | TGI (ACHN renal) | TGI (HS 578T breast) | TGI (SK-MEL-2 melanoma) | TGI (HOP-62 NSCLC) | TGI (RXF 393 renal) | TGI (IGROV1 ovarian) | TGI (HL-60(TB) leukemia) | TGI (MDA-MB-231 breast) | TGI (OVCAR-5 ovarian) | TGI (NCI-H23 lung) | TGI (CCRF-CEM leukemia) | TGI (BT-549 breast) | TGI (NCI/ADR-RES ovarian) | TGI (MALME-3M melanoma) | TGI (M14 melanoma) | TGI (COLO 205 colon) | TGI (T-47D breast) | TGI (HCC-2998 colon) | TGI (DU-145 prostate) | TGI (MCF7 breast) | TGI (HCT-116 colon) | TGI (OVCAR-3 ovarian) | TGI (SW-620 colon) | TGI (786-0 renal) | TGI (K-562 leukemia) | TGI (MDA-MB-435) | TGI (SR leukemia) | TGI (EKVX NSCLC) | TGI (SK-MEL-5 melanoma) | TGI (TK-10 renal) | TGI (SK-OV-3 ovarian) | TGI (OVCAR-4 ovarian) | TGI (NCI-H460 lung) | TGI (UACC-257 melanoma) | TGI (A498 renal) | TGI (PC-3 prostate) | TGI (SF-539 CNS) | TGI (SN12C renal) | TGI (MOLT-4 leukemia) | TGI (HOP-92 NSCLC) | TGI (CAKI-1 renal) | TGI (NCI-H522 lung) | TGI (KM12 colon) | TGI (A549 NSCLC) | TGI (HT29 colon) | TGI (SK-MEL-28 melanoma) | TGI (SNB-75 CNS) | TGI (RPMI-8226 leukemia) | TGI (LOX IMVI melanoma) | TGI (HCT-15 colon) | TGI (UO-31 renal) | TGI (SNB-19 CNS) | TGI (SF-268 CNS) | TGI (OVCAR-8 ovarian) | TGI (NCI-H226 lung)
inactive: GI50 (U251 CNS) > 78.4 µM | GI50 (ACHN renal) 5.64 µM | GI50 (HS 578T breast) > 100 µM | GI50 (SK-MEL-2 melanoma) > 100 µM | GI50 (HOP-62 NSCLC) > 31.8 µM | GI50 (RXF 393 renal) 63.8 µM | GI50 (SF-295 CNS) 5.01 µM | GI50 (IGROV1 ovarian) > 100 µM | GI50 (HL-60(TB) leukemia) > 58.5 µM | GI50 (MDA-MB-231 breast) > 100 µM | GI50 (OVCAR-5 ovarian) > 100 µM | GI50 (NCI-H23 lung) 49.1 µM | GI50 (CCRF-CEM leukemia) > 36.3 µM | GI50 (BT-549 breast) 58 µM | GI50 (NCI/ADR-RES ovarian) 8.58 µM | GI50 (MALME-3M melanoma) > 100 µM | GI50 (M14 melanoma) 7.97 µM | GI50 (COLO 205 colon) 13.8 µM | GI50 (T-47D breast) > 67 µM | GI50 (HCC-2998 colon) 1.32 µM | GI50 (DU-145 prostate) 16.5 µM | GI50 (MCF7 breast) 0.899 µM | GI50 (HCT-116 colon) 7.53 µM | GI50 (OVCAR-3 ovarian) > 100 µM | GI50 (SW-620 colon) > 44.5 µM | GI50 (786-0 renal) 4.96 µM | GI50 (K-562 leukemia) > 100 µM | GI50 (MDA-MB-435) > 74.5 µM | GI50 (SR leukemia) 7.05 µM | GI50 (EKVX NSCLC) > 100 µM | GI50 (SK-MEL-5 melanoma) 10 µM | GI50 (TK-10 renal) > 100 µM | GI50 (SK-OV-3 ovarian) > 53.4 µM | GI50 (OVCAR-4 ovarian) > 100 µM | GI50 (NCI-H460 lung) 5.11 µM | GI50 (UACC-257 melanoma) > 100 µM | GI50 (PC-3 prostate) > 100 µM | GI50 (SF-539 CNS) 4.38 µM | GI50 (SN12C renal) 6.78 µM | GI50 (MOLT-4 leukemia) 31.6 µM | GI50 (HOP-92 NSCLC) > 53.4 µM | GI50 (CAKI-1 renal) 6.13 µM | GI50 (NCI-H522 lung) > 100 µM | GI50 (KM12 colon) > 100 µM | GI50 (A549 NSCLC) 5.41 µM | GI50 (HT29 colon) > 100 µM | GI50 (UACC-62 melanoma) 7.33 µM | GI50 (SK-MEL-28 melanoma) > 100 µM | GI50 (SNB-75 CNS) > 100 µM | GI50 (RPMI-8226 leukemia) 88 µM | GI50 (LOX IMVI melanoma) 5.12 µM | GI50 (HCT-15 colon) > 29.9 µM | GI50 (UO-31 renal) 3.74 µM | GI50 (SNB-19 CNS) > 73.5 µM | GI50 (SF-268 CNS) 5.94 µM | GI50 (OVCAR-8 ovarian) 5.81 µM | GI50 (NCI-H226 lung) > 100 µM
